According to the NIST ThermoML archive (doi:10.1016/j.jct.2013.08.016):

Key:
[1] = mn = molality of the nth substance listed, in mol/kg; conditions: 101.3 kPa, Liquid; for viscosity: Capillary tube (Ostwald / Ubbelohde) method; for mass density: Pycnometric method; for speed of sound: Single path-length method
[2] = refractive index (Na D-line) (dimensionless); mn = molality of the nth substance listed, in mol/kg; conditions: 101.3 kPa, Liquid, Standard Abbe refractometry

O=C1O[C@H]([C@@H](O)CO)C(O)=C1O [L-ascorbic acid] + O
Conditions	mass density, [1] [kg/m3]	refractive index, [2]	speed of sound, [1] [m/s]	viscosity, [1] [mPa·s]
278.15 K, m1 = 0.0502	1003.69	1.3353	1429.5	1.566
278.15 K, m1 = 0.0997	1007.29	1.3365	1432.8	1.606
278.15 K, m1 = 0.1384	1010.1	1.3378	1434.7	1.634
278.15 K, m1 = 0.1964	1014.25	1.3394	1438.5	1.668
278.15 K, m1 = 0.2338	1016.85	1.3405	1440.5	1.699
278.15 K, m1 = 0.2927	1020.96	1.3419	1443.6	1.737
278.15 K, m1 = 0.3392	1024.27	1.3434	1445.3	1.77
278.15 K, m1 = 0.4069	1028.56	1.3448	1448.9	1.813
278.15 K, m1 = 0.4383	1030.63	1.3459	1451.3	1.842
278.15 K, m1 = 0.4932	1034.36	1.3472	1454.6	1.874
278.15 K, m1 = 0.5541	1038.24	1.3489	1458.2	1.921
278.15 K, m1 = 0.6251	1042.79	1.351	1463.2	1.974
278.15 K, m1 = 0.711	1048.36	1.3533	1467.3	2.033
278.15 K, m1 = 0.7457	1050.45	1.3544	1469.1	2.05
288.15 K, m1 = 0.0496	1002.68	1.3348	1468.6	1.165
288.15 K, m1 = 0.1009	1006.33	1.3364	1471.2	1.184
288.15 K, m1 = 0.1408	1009.14	1.3378	1473.2	1.205
288.15 K, m1 = 0.1952	1012.94	1.339	1476.3	1.236
288.15 K, m1 = 0.2426	1016.2	1.34	1479	1.257
288.15 K, m1 = 0.2997	1020.14	1.3417	1481.7	1.282
288.15 K, m1 = 0.3402	1022.83	1.3428	1483.8	1.288
288.15 K, m1 = 0.3936	1026.48	1.3441	1487.6	1.325
288.15 K, m1 = 0.4492	1030.03	1.3456	1489.1	1.353
288.15 K, m1 = 0.5096	1034.09	1.3471	1492.7	1.386
288.15 K, m1 = 0.5782	1038.38	1.3489	1496.4	1.424
288.15 K, m1 = 0.6302	1041.56	1.3499	1499.1	1.444
288.15 K, m1 = 0.6984	1046.01	1.352	1501.6	1.475
288.15 K, m1 = 0.7426	1048.42	1.3529	1503.6	1.494
298.15 K, m1 = 0.0502	1000.6	1.3339	1498.9	0.9072
298.15 K, m1 = 0.1017	1004.18	1.3354	1501.5	0.9235
298.15 K, m1 = 0.1409	1006.8	1.3365	1503.4	0.935
298.15 K, m1 = 0.1988	1010.73	1.338	1505.2	0.9544
298.15 K, m1 = 0.2402	1013.54	1.3391	1506.7	0.9688
298.15 K, m1 = 0.2987	1017.33	1.3407	1508.9	0.9928
298.15 K, m1 = 0.3421	1020.12	1.3418	1510.9	1.007
298.15 K, m1 = 0.4046	1024.34	1.3431	1514.2	1.028
298.15 K, m1 = 0.4536	1027.31	1.3443	1518.2	1.046
298.15 K, m1 = 0.5119	1030.98	1.3461	1520	1.068
298.15 K, m1 = 0.5788	1035.16	1.3478	1521.8	1.093
298.15 K, m1 = 0.6259	1038.06	1.3497	1523.6	1.111
298.15 K, m1 = 0.6974	1042.37	1.3508	1525.5	1.141
298.15 K, m1 = 0.7486	1045.37	1.3518	1527.3	1.164
